The source made the active and inactive calls. No cut-off for these calls is given here.
Columns and labels:
[1] = test system: AGS; assay: Induction of apoptosis in human AGS cells assessed as viable cells measured after 24 hrs by AnnexinV-FITC/PI staining based flow cytometry method (reference value: 95.4 %); type: functional
[2] = Toxicity in nude mouse xenografted with human AGS cells assessed as effect on body weight at 10 to 20 mg/kg, ip administered every other day and monitored every 3 days; type: organism-based; details: in vivo, 72 h, dose 10-20 mg/kg, time 3 day
[3] = test system: HGC-27; assay: Induction of apoptosis in human HGC-27 cells transfected with pcDNA3.1-Drp1 plasmid to overexpress DRP1 assessed as early apoptotic cells measured after 24 hrs by AnnexinV-FITC/PI staining based flow cytometry method (reference value: 2.1%); type: functional
[4] = test system: AGS; assay: Induction of apoptosis in human AGS cells assessed as early apoptotic cells at 8 uM measured after 24 hrs by AnnexinV-FITC/PI staining based flowcytometry method (reference value: 1.2%); type: functional
[5] = test system: HGC-27; assay: Induction of cell cycle arrest in human HGC-27 cells assessed as decrease in CDK4 level at 0 to 10 uM by Western blot analysis; type: functional, cell-based; details: dose 0-10 µM
[6] = test system: HGC-27; assay: Induction of apoptosis in human HGC-27 cells assessed as late apoptotic cells at 10 uM measured after 24 hrs by AnnexinV-FITC/PI staining based flowcytometry method (reference value: 5.4%); type: functional
[7] = test system: AGS; assay: Inhibition of colony formation of human AGS cells assessed as reduction in colony number at 0 to 10 uM measured after 24 hrs by crystal violet staining assay; type: functional, cell-based; details: dose 0-10 µM
[8] = test system: AGS; assay: Induction of apoptosis in human AGS cells assessed as viable cells at 6 uM measured after 24 hrs by AnnexinV-FITC/PI staining based flowcytometry method (reference value: 95.2%); type: functional; details: read-out: Activity
[9] = test system: HGC-27; assay: Induction of apoptosis in human HGC-27 cells assessed as early apoptotic cells at 8 uM measured after 24 hrs by AnnexinV-FITC/PI staining based flowcytometry method (reference value: 3.3%); type: functional
[10] = test system: HGC-27; assay: Induction of apoptosis in human HGC-27 cells assessed as viable cells at 10 uM measured after 24 hrs by AnnexinV-FITC/PI staining based flowcytometry method (reference value: 91.1%); type: functional; details: read-out: Activity
[11] = test system: HGC-27; assay: Induction of apoptosis in human HGC-27 cells assessed as necrotic cells at 6 uM measured after 24 hrs by AnnexinV-FITC/PI staining based flowcytometry method (reference value: 0.2%); type: functional
[12] = Toxicity in nude mouse xenografted with human AGS cells assessed as effect on kidney morphology at 10 to 20 mg/kg, ip administered every other day and monitored every 3 days by Hematoxyin-eosin staining based analysis; type: organism-based; details: in vivo, 72 h, dose 10-20 mg/kg, time 3 day
[13] = test system: HGC-27; assay: Induction of apoptosis in human HGC-27 cells assessed as early apoptotic cells at 6 uM measured after 24 hrs by AnnexinV-FITC/PI staining based flowcytometry method (reference value: 3.3%); type: functional
[14] = Toxicity in nude mouse xenografted with human AGS cells assessed as effect on lung morphology at 10 to 20 mg/kg, ip administered every other day and monitored every 3 days by Hematoxyin-eosin staining based analysis; type: organism-based; details: in vivo, 72 h, dose 10-20 mg/kg, time 3 day
[15] = test system: AGS; assay: Induction of apoptosis in human AGS cells assessed as early apoptotic cells at 10 uM measured after 24 hrs by AnnexinV-FITC/PI staining based flowcytometry method (reference value: 1.2%); type: functional
[16] = test system: AGS; assay: Inhibition of mitochondrial fission in human AGS cells assessed as reduction in punctiform mitochondria at 0 to 6 uM measured after 24 hrs by mitotracker based confocal microscopy; type: functional; details: dose 0-6 µM
[17] = test system: HGC-27; assay: Induction of apoptosis in human HGC-27 cells assessed as increase in cleaved caspase-3 level at 0 to 10 uM by Western blot analysis; type: functional, cell-based; details: dose 0-10 µM
[18] = test system: HGC-27; assay: Induction of apoptosis in human HGC-27 cells assessed as viable cells measured after 24 hrs by AnnexinV-FITC/PI staining based flow cytometry method (reference value: 96.6%); type: functional
[19] = test system: HGC-27; assay: Induction of apoptosis in human HGC-27 cells assessed as increase in cleaved caspase-9 level at 0 to 10 uM by Western blot analysis; type: functional, cell-based; details: dose 0-10 µM
[20] = test system: AGS; assay: Induction of apoptosis in human AGS cells assessed as increase in cleaved caspase-9 level at 0 to 10 uM by Western blot analysis; type: functional, cell-based; details: dose 0-10 µM
[21] = test system: Mus musculus; assay: In vivo inhibition of ERK signalling pathway in nude mouse xenografted with human AGS cells assessed as downregulation of p-ERK levels at 10 to 20 mg/kg, ip administered every other day and monitored every 3 days by western blot analysis; type: functional, organism-based; details: dose 10-20 mg/kg, time 3.0 day
[22] = test system: AGS; assay: Induction of apoptosis in human AGS cells assessed as downregulation of Bcl-2 level at 0 to 10 uM by Western blot analysis; type: functional, cell-based; details: dose 0-10 µM
[23] = test system: HGC-27; assay: Induction of cell cycle arrest in human HGC-27 cells assessed as accumulation of cells at G0/G1 phase at 8 uM incubated for 24 hrs propidium iodide-A staining-based flow cytometric analysis (reference value: 45.21%); type: functional
[24] = test system: AGS; assay: Induction of apoptosis in human AGS cells assessed as late apoptotic cells measured after 24 hrs by AnnexinV-FITC/PI staining based flow cytometry method (reference value: 2.4%); type: functional
[25] = test system: AGS; assay: Induction of apoptosis in human AGS cells assessed as necrotic cells measured after 24 hrs by AnnexinV-FITC/PI staining based flow cytometry method (reference value: 0.1%); type: functional
[26] = test system: AGS; assay: Induction of cell cycle arrest in human AGS cells assessed as decrease in CDK4 level at 0 to 10 uM by Western blot analysis; type: functional, cell-based; details: dose 0-10 µM
[27] = test system: AGS; assay: Induction of apoptosis in human AGS cells assessed as viable cells at 10 uM measured after 24 hrs by AnnexinV-FITC/PI staining based flowcytometry method (reference value: 95.2%); type: functional; details: read-out: Activity
[28] = test system: AGS; assay: Induction of apoptosis in human AGS cells transfected with pcDNA3.1-Drp1 plasmid to overexpress DRP1 assessed as necrotic cells and measured after 24 hrs by AnnexinV-FITC/PI staining based flow cytometry method (reference value: 0.2 %); type: functional
[29] = test system: HGC-27; assay: Induction of apoptosis in human HGC-27 cells assessed as upregulation of Bax level at 0 to 10 uM by Western blot analysis; type: functional, cell-based; details: dose 0-10 µM
[30] = test system: HGC-27; assay: Induction of cell cycle arrest in human HGC-27 cells assessed as accumulation of cells at G0/G1 phase at 6 uM incubated for 24 hrs propidium iodide staining-based flow cytometric analysis (reference value: 45.21%); type: functional
[31] = test system: AGS; assay: Antiproliferative activity against human AGS cells assessed as reduction in cell growth measured after 24 hrs by CCK8 assay; type: functional, cell-based
[32] = test system: AGS; assay: Induction of apoptosis in human AGS cells assessed as necrotic cells at 10 uM measured after 24 hrs by AnnexinV-FITC/PI staining based flowcytometry method (reference value: 0.2%); type: functional
[33] = Toxicity in nude mouse xenografted with human AGS cells assessed as effect on alanine aminotransferase level at 10 to 20 mg/kg, ip administered every other day and monitored every 3 days; type: organism-based; details: in vivo, 72 h, dose 10-20 mg/kg, time 3 day
[34] = test system: HGC-27; assay: Induction of apoptosis in human HGC-27 cells transfected with pcDNA3.1-Drp1 plasmid to overexpress DRP1 assessed as viable cells measured after 24 hrs by AnnexinV-FITC/PI staining based flow cytometry method (reference value: 95.8%); type: functional

**Q.** With CC(C)=CCC12Oc3cc(O)ccc3C1(O)Oc1cc(O)c([C@H]3C=C(C)C[C@H](c4ccc(O)cc4O)[C@H]3C(=O)c3ccc(O)cc3O)c(O)c1C2=O (some centres undefined) as the compound, how does the Activity [1] read?
**A.** Its Activity is 88.8%.

**Q.** What about the Activity [2] of the same compound?
**A.** The Activity was “Non-Toxic”.

**Q.** What about the Activity [3] of the same compound?
**A.** Its Activity is 2.4%.

**Q.** What about the Activity [4] of the same compound?
**A.** Its Activity is 2.1%.

**Q.** And the Activity [5]?
**A.** The Activity was “Active”.

**Q.** And the Activity [6]?
**A.** Its Activity is 15.9%.

**Q.** And the inhibition [7]?
**A.** The inhibition was “Active”.

**Q.** What about the viability at 6 µM [8] of the same compound?
**A.** Its viability at 6 µM is 90.1%.

**Q.** What about the Activity [9] of the same compound?
**A.** Its Activity is 4%.

**Q.** What about the viability at 10 µM [10] of the same compound?
**A.** The viability at 10 µM was 72.4%.

**Q.** And the Activity [11]?
**A.** Its Activity is 1.5%.

**Q.** And the Activity [12]?
**A.** Its Activity is “Non-Toxic”.

**Q.** And the Activity [13]?
**A.** The Activity was 4.2%.

**Q.** What about the Activity [14] of the same compound?
**A.** The Activity was “Non-Toxic”.

**Q.** What about the Activity [15] of the same compound?
**A.** The Activity was 3.2%.

**Q.** And the inhibition [16]?
**A.** Its inhibition is “Active”.

**Q.** And the Activity [17]?
**A.** The Activity was “Active”.

**Q.** What about the Activity [18] of the same compound?
**A.** The Activity was 91.3%.

**Q.** And the Activity [19]?
**A.** Its Activity is “Active”.

**Q.** And the Activity [20]?
**A.** Its Activity is “Active”.

**Q.** What about the inhibition [21] of the same compound?
**A.** The inhibition was “Active”.

**Q.** And the Activity [22]?
**A.** The Activity was “Active”.

**Q.** And the Activity [23]?
**A.** The Activity was 62.4%.

**Q.** And the Activity [24]?
**A.** The Activity was 7.6%.

**Q.** What about the Activity [25] of the same compound?
**A.** The Activity was 0.1%.

**Q.** What about the Activity [26] of the same compound?
**A.** Its Activity is “Active”.

**Q.** And the viability at 10 µM [27]?
**A.** Its viability at 10 µM is 81.2%.

**Q.** And the Activity [28]?
**A.** The Activity was 0.1%.

**Q.** What about the Activity [29] of the same compound?
**A.** The Activity was “Active”.

**Q.** What about the Activity [30] of the same compound?
**A.** The Activity was 61.3%.

**Q.** And the IC50 [31]?
**A.** The IC50 was 9.86 µM.

**Q.** What about the Activity [32] of the same compound?
**A.** Its Activity is 0.3%.

**Q.** What about the Activity [33] of the same compound?
**A.** Its Activity is “Non-Toxic”.

**Q.** And the Activity [34]?
**A.** The Activity was 95.4%.
